Consider 7 compounds from article PMC5653438 (Molecular microbiology, 2017).

One may read the Kd as the equilibrium constant for the complex coming apart. By pKa is commonly meant the pH at which an ionisable group is half protonated.

Structures can show the parent of a compound that is named as a salt.

Series [1] has as its target T1, PfLipL1 (Plasmodium falciparum, UniProt Q8IEG9). Nature of the series: biochemical. In kind it is binding. Particulars: KD TSA, Kd calculated at 37 °C.
Series [2] addresses T1, PfLipL1. Nature of the series: biochemical. The following applies: KD ITC. The format is binding.
The conditions of series [3]: ref Lukesh et al., 2012; cited from earlier work.
In series [4] the test system is malaria parasite. Particulars: treatment with lipoate analogs; ref Allary et al., 2007; Afanador et al., 2014; cited from earlier work.
[5] abbreviates: non-reducing conditions (no reducing agent).
The mark [6] stands for this setting: reducing conditions, + TCEP (5 mM).

T1 sequence (Q8IEG9 19-408): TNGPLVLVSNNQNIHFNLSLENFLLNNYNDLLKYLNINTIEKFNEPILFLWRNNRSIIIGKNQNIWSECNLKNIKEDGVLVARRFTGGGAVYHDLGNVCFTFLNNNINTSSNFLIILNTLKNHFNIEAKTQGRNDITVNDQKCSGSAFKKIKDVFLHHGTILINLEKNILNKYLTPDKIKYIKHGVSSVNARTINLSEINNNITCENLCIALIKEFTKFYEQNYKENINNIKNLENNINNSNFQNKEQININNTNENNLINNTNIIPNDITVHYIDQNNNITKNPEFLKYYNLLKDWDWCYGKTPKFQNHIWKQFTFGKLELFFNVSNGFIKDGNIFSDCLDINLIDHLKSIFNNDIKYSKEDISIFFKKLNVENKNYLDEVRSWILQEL

As to `Nc1ncnc2c1ncn2[C@@H]1O[C@H](COP(=O)(O)OC(=O)CCCC[C@@H]2CCSS2)[C@@H](O)[C@H]1O` [Lipoyl-AMP, (R)-5-(1,2-dithiolan-3-yl)pentanoic (((2R,3S,4R,5R)-5-(6-amino-9H-purin-9-yl)-3,4-dihydroxytetrahydrofuran-2-yl)methylphosphoric) anhydride monosodium salt], the Kd in series [1] (setting [5]) was 20 ± 5 nM; in series [2] (non-reducing conditions) it was 65 ± 5 nM.

As to `Nc1ncnc2c1ncn2[C@@H]1O[C@H](COP(=O)(O)OC(=O)CCCCC(Cl)CCCl)[C@@H](O)[C@H]1O` (stereo partly drawn) [6,8-diClO-AMP, 6,8-dichlorooctanoic (((2R,3S,4R,5R)-5-(6-amino-9H-purin-9-yl)-3,4-dihydroxytetrahydrofuran-2-yl)methylphosphoric) anhydride monosodium salt], the Kd in series [1] (setting [5]) was 90 ± 30 nM; in series [1] (setting [6]) it was 250 ± 20 nM; in series [2] (non-reducing conditions), 100 ± 30 nM; in series [2] (reducing conditions, + TCEP), 500 ± 200 nM. On to `O[C@@H](CS)[C@@H](O)CS` (racemic) [DTT, dithiothreitol], for which the pKa in series [3] is recorded as 9.3. With `O=C(O)CCCCC(Cl)CCCl` (stereo not shown) [6,8-diClO, 6,8-dichlorooctanoate], the results for the Kd in series [1] (setting [5]) and in series [1] (setting [6]) were 13000 ± 4000 nM and 18000 ± 1000 nM, respectively. The “parasite cell growth inhibition” value in series [4] was “causes parasite cell growth inhibition”. Take `O=C(O)CCCCCCCBr` [8-BrO, 8-bromooctanoate]: the “parasite cell growth inhibition” value in series [4] is listed as “causes parasite cell growth inhibition”. As for `O=C(O)CCCC[C@@H](S)CCS` (racemic) [Lipoate + TCEP, dihydrolipoate], the Kd in series [1] (setting [6]) is 94000 ± 30000 nM. Take `Nc1ncnc2c1ncn2[C@@H]1O[C@H](COP(=O)(O)OC(=O)CCCC[C@@H](S)CCS)[C@@H](O)[C@H]1O` [Lipoyl-AMP + TCEP, dihydrolipoyl-AMP]: in series [1] (setting [6]), the Kd was 5800 ± 400 nM.
